Experimental data: US9234178B2, “Differentiation of human pluripotent stem cells” (Janssen Biotech, Inc., priority 2008, dated 2016)

Columns and labels:
Assay type in all cases: cell-based, human
islet-like clusters = test: CDK inhibitor III treatment of islet-like clusters in suspension (Stage 7): PCR and dithizone staining (Example 4); settings: 1 μm
Method: The medium was changed daily.
After stage 6, the cells were treated for 5 mins at room temperature with 1× accutase (Sigma, Mo.). The accutase was removed, and DMEM/12+1% B27 was added to the cells. The attached cells were removed using a cell scarper and gently resuspended and passed through a 40 μm cell strainer. The cells retained on the strainer were removed by rinsing in basal media and cultured in suspension on Ultra-Low culture plates (Catalogue#3471, Corning, Ma). […] Cells treated with vehicle were included as controls. Samples were collected at days 7 through 10 for PCR analysis and dithizone staining. The cells cultured in suspension according to the methods outlined in this example assumed a morphology similar to pancreatic islet clusters.

insulin-producing cells [1] = test: FACS analysis of insulin producing cells (Example 5); settings: 1 μM for 5 days
Method: (§1) DMEM/F12+1% B27 for seven days (Stage 6), then • g. Treatment with Accutase for 5 minutes, followed by scraping to remove any remaining attached cells. The cell suspension was then passed through a 40 μm cell strainer. The cells retained on the strainer were removed by rinsing in basal media and cultured in suspension on Ultra-Low culture plates in DMEM-High Glucose (Catalogue#11995-073, Invitrogen, Ca)+1% B27+20 ng/ml of activin A (AA) 1 μm of CDK inhibitor III (Catalog#217714, Calbiochem, Ca) for 5 days (Stage 7).
Islet-like clusters were dispersed into single cells using TrypLE Express (Invitrogen, Carlsbad, Calif.) and washed in cold PBS. For fixation, the cells were resuspended in 200-300 μl Cytofix/Cytoperm Buffer (BD 554722, BD, Ca) and incubated for 30 min at 4° C. Cells were washed two times in 1 ml Perm/Wash Buffer Solution (BD 554723) and resuspended in 100 μl staining/blocking solution containing 2% normal goat serum in Perm/Wash buffer. For flow cytometric analysis, cells were stained with the following primary antibodies: Anti-Insulin (Rabbit mAb, Cell Signaling No. C279; 1:100 dilution); Anti-Glucagon (Mouse Mab, Sigma No. G2654, 1:100); Anti-Synaptophysin (Rabbit Polyclonal antibody, DakoCytomation No A0010, 1:50). […] Cells were washed at least once in Perm/Wash buffer and analyzed using BD FACSArray. […]

insulin-producing cells [2] = test: Kinetics of CDK inhibitor-induced MAFA expression, PCR (Example 6)
Method: as §1, with “A (AA) 2 μm of” for “A (AA) 1 μm of”, “Ca) for 1-8 days (Stage” for “Ca) for 5 days (Stage”
Samples were collected for PCR analysis at days 1, 2, 3, and 4.

[3] = Stage 7, days 7 through 10, PCR
[4] = 2 μm, days 1-4 of stage 7, increased as a function of time
[5] = four days after removal of the compound

SMILES: Nc1nc(Nc2ccc(S(N)(=O)=O)cc2)nn1C(=S)Nc1c(F)cccc1F [PubChem ID#5330812, 5-Amino-3-((4-(aminosulfonyl)phenyl)amino)-N-(2,6-difluorophenyl)-1H-1,2,4-triazole-1-carbothioamide]
- expression of markers associated with the pancreatic endocrine lineage (islet-like clusters; [3]): increased the expression
- expression of the pro-insulin transcription factor MAFA (islet-like clusters; [3]): increased the expression
- dithazone (DTZ) staining of clusters (islet-like clusters; Stage 7, versus untreated clusters): more reddish staining pattern
- percentage of poly hormonal (insulin and glucagon positive) cells (insulin-producing cells [1]; Stage 7, versus vehicle): decreased
- single hormonal insulin positive cells (insulin-producing cells [1]; Stage 7, vehicle 3%): 8%
- MAFA expression (insulin-producing cells [2]; [4]): significant increase
- insulin expression (insulin-producing cells [2]; [4]): significant increase
- MAFA expression after removal of CDK inhibitor (insulin-producing cells [2]; [5]): significant drop
- insulin expression after removal of CDK inhibitor (insulin-producing cells [2]; [5]): significant drop
